Results as given in patent US11053204B2, “Pyrimidinyloxy benzene derivatives as herbicides” (FMC Corporation, priority 2015, dated 2021).

Columns and labels:
Type in all cases: in vivo
[1] = tested on: blackgrass (Alopecurus myosuroides); assay: Test A postemergence, visual injury rating; conditions: Alopecurus myosuroides, post-emergence, 240 h, 0 is no effect, 100 is complete control, read-out: Blackgrass plant response rating (0 to 100 scale)
How it was run: (§1)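 Scoring: eye-based comparison with untreated controls, 0 for no effect through 100 for complete control, at about day 10. Treatments: directed soil spray preemergence; foliar spray postemergence on 2–10 cm plants at the one- to two-leaf stage. Medium: loam soil with sand.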

[2] = tested on: galium (catchweed bedstraw, Galium aparine); assay: Test A postemergence, visual injury rating; conditions: Galium, post-emergence, 240 h, 0 is no effect, 100 is complete control, read-out: Galium plant response rating (0 to 100 scale)
How it was run: as §1

[3] = tested on: barnyardgrass (Echinochloa crus-galli); assay: Test A postemergence, visual injury rating; conditions: Echinochloa crus-galli, post-emergence, 240 h, 0 is no effect, 100 is complete control, read-out: Barnyardgrass plant response rating (0 to 100 scale)
How it was run: as §1

[4] = tested on: foxtail, giant (giant foxtail, Setaria faberii); assay: Test C preemergence, plant response rating; conditions: Setaria faberi, pre-emergence, Preemergence
How it was run: (§2)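 After sowing in loam–sand blend or silt loam, pots were sprayed preemergence; separately grown 1- to 4-leaf plants were sprayed postemergence. Following 13 to 15 d under greenhouse conditions, injury was rated visually on a 0 to 100 scale.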

[5] = tested on: wheat (winter wheat, Triticum aestivum); assay: Test C preemergence, plant response rating; conditions: Triticum aestivum, pre-emergence, Preemergence
How it was run: as §2

[6] = tested on: nutsedge, yellow (yellow nutsedge, Cyperus esculentus); assay: Test C preemergence, plant response rating; conditions: Cyperus, pre-emergence, Preemergence
How it was run: as §2

[7] = tested on: lambsquarters (Chenopodium album); assay: Test C preemergence, plant response rating; conditions: Chenopodium album, pre-emergence, Preemergence
How it was run: as §2

[8] = tested on: blackgrass (Alopecurus myosuroides); assay: Test C preemergence, plant response rating; conditions: Alopecurus myosuroides, pre-emergence, Preemergence
How it was run: as §2

[9] = tested on: waterhemp (common waterhemp, Amaranthus rudis); assay: Test C preemergence, plant response rating; conditions: Amaranthus tuberculatus, pre-emergence, Preemergence
How it was run: as §2

[10] = tested on: crabgrass, large (large crabgrass, Digitaria sanguinalis); assay: Test C preemergence, plant response rating; conditions: Digitaria sanguinalis, pre-emergence, Preemergence
How it was run: as §2

[11] = tested on: ragweed (common ragweed, Ambrosia elatior); assay: Test C preemergence, plant response rating; conditions: Ambrosia artemisiifolia, pre-emergence, Preemergence
How it was run: as §2

[12] = tested on: ryegrass, Italian (Italian ryegrass, Lolium multiflorum); assay: Test C preemergence, plant response rating; conditions: Lolium multiflorum, pre-emergence, Preemergence
How it was run: as §2

corn (Zea mays) = assay: Test C preemergence, plant response rating; conditions: Zea mays, pre-emergence, Preemergence
How it was run: as §2

soybean (Glycine max) = assay: Test C preemergence, plant response rating; conditions: Glycine max, pre-emergence, Preemergence, scale 0 to 100
How it was run: as §2

[13] = tested on: oilseed rape (Brassica napus); assay: Test C preemergence, plant response rating; conditions: Brassica napus, pre-emergence, Preemergence
How it was run: as §2

[14] = tested on: morningglory (Ipomoea coccinea); assay: Test C preemergence, plant response rating; conditions: Ipomoea, pre-emergence, Preemergence
How it was run: as §2

[15] = tested on: velvetleaf (Abutilon theophrasti); assay: Test C preemergence, plant response rating; conditions: Abutilon theophrasti, pre-emergence, Preemergence
How it was run: as §2

## O=C(OCCC(F)(F)F)c1c(Br)cccc1Oc1ncc(Cl)cn1 [Compound 26, 3,3,3-trifluoropropyl 2-bromo-6-[(5-chloro-2-pyrimidinyl)oxy]benzoate]
[1]; 125 g ai/ha
  pest or weed control at 125 g/ha: 100%
[1]; 500 g ai/ha
  pest or weed control at 500 g/ha: 100%
[2]; 125 g ai/ha
  pest or weed control at 125 g/ha: 100%
[2]; 500 g ai/ha
  pest or weed control at 500 g/ha: 100%
[3]; 125 g ai/ha
  pest or weed control at 125 g/ha: 100%
[3]; 500 g ai/ha
  pest or weed control at 500 g/ha: 100%
[4]; 62 g ai/ha, scale of 0 to 100
  pest or weed control at 62 g/ha: 98%
[4]; 125 g ai/ha, scale of 0 to 100
  pest or weed control at 125 g/ha: 98%
[4]; 16 g ai/ha, scale 0 to 100
  pest or weed control at 16 g/ha: 95%
[4]; 31 g ai/ha, scale 0 to 100
  pest or weed control at 31 g/ha: 98%
[5]; 125 g ai/ha, scale of 0 to 100
  plant injury at 125 g/ha: 15%
[5]; 16 g ai/ha, scale 0 to 100
  plant injury at 16 g/ha: 0%
[5]; 31 g ai/ha, scale 0 to 100
  plant injury at 31 g/ha: 20%
[5]; 62 g ai/ha, scale 0 to 100
  plant injury at 62 g/ha: 5%
[6]; 125 g ai/ha, scale of 0 to 100
  pest or weed control at 125 g/ha: 45%
[6]; 16 g ai/ha, scale 0 to 100
  pest or weed control at 16 g/ha: 0%
[6]; 31 g ai/ha, scale 0 to 100
  pest or weed control at 31 g/ha: 0%
[6]; 62 g ai/ha, scale 0 to 100
  pest or weed control at 62 g/ha: 15%
[7]; 125 g ai/ha, scale of 0 to 100
  pest or weed control at 125 g/ha: 95%
[7]; 16 g ai/ha, scale 0 to 100
  pest or weed control at 16 g/ha: 70%
[7]; 31 g ai/ha, scale 0 to 100
  pest or weed control at 31 g/ha: 85%
[7]; 62 g ai/ha, scale 0 to 100
  pest or weed control at 62 g/ha: 95%
[8]; 62 g ai/ha, scale of 0 to 100
  pest or weed control at 62 g/ha: 90%
[8]; 125 g ai/ha, scale of 0 to 100
  pest or weed control at 125 g/ha: 90%
[8]; 16 g ai/ha, scale 0 to 100
  pest or weed control at 16 g/ha: 45%
[8]; 31 g ai/ha, scale 0 to 100
  pest or weed control at 31 g/ha: 90%
[9]; 125 g ai/ha, scale of 0 to 100
  pest or weed control at 125 g/ha: 100%
[9]; 16 g ai/ha, scale 0 to 100
  pest or weed control at 16 g/ha: 100%
[9]; 31 g ai/ha, scale 0 to 100
  pest or weed control at 31 g/ha: 100%
[9]; 62 g ai/ha, scale 0 to 100
  pest or weed control at 62 g/ha: 100%
[10]; 62 g ai/ha, scale of 0 to 100
  pest or weed control at 62 g/ha: 100%
[10]; 125 g ai/ha, scale of 0 to 100
  pest or weed control at 125 g/ha: 100%
[10]; 16 g ai/ha, scale 0 to 100
  pest or weed control at 16 g/ha: 98%
[10]; 31 g ai/ha, scale 0 to 100
  pest or weed control at 31 g/ha: 100%
[11]; 125 g ai/ha, scale of 0 to 100
  pest or weed control at 125 g/ha: 50%
[11]; 16 g ai/ha, scale 0 to 100
  pest or weed control at 16 g/ha: 20%
[11]; 31 g ai/ha, scale 0 to 100
  pest or weed control at 31 g/ha: 30%
[11]; 62 g ai/ha, scale 0 to 100
  pest or weed control at 62 g/ha: 60%
[12]; 125 g ai/ha, scale of 0 to 100
  pest or weed control at 125 g/ha: 95%
[12]; 16 g ai/ha, scale 0 to 100
  pest or weed control at 16 g/ha: 35%
[12]; 31 g ai/ha, scale 0 to 100
  pest or weed control at 31 g/ha: 75%
[12]; 62 g ai/ha, scale 0 to 100
  pest or weed control at 62 g/ha: 85%
Corn (Zea mays); 62 g ai/ha, scale of 0 to 100
  Corn plant response rating (crop injury, 0 = no effect, 100 = complete kill) at 62 g/ha: 25%
Corn (Zea mays); 125 g ai/ha, scale of 0 to 100
  Corn plant response rating (crop injury, 0 = no effect, 100 = complete kill) at 125 g/ha: 40%
Corn (Zea mays); 16 g ai/ha, scale 0 to 100
  Corn plant response rating (crop injury, 0 = no effect, 100 = complete kill) at 16 g/ha: 0%
Corn (Zea mays); 31 g ai/ha, scale 0 to 100
  Corn plant response rating (crop injury, 0 = no effect, 100 = complete kill) at 31 g/ha: 0%
Soybean (Glycine max); 31 g ai/ha
  plant injury at 31 g/ha: 10%
Soybean (Glycine max); 62 g ai/ha
  plant injury at 62 g/ha: 35%
[13]; 125 g ai/ha, scale of 0 to 100
  plant injury at 125 g/ha: 100%
[13]; 16 g ai/ha, scale 0 to 100
  plant injury at 16 g/ha: 80%
[13]; 31 g ai/ha, scale 0 to 100
  plant injury at 31 g/ha: 85%
[13]; 62 g ai/ha, scale 0 to 100
  plant injury at 62 g/ha: 100%
[14]; 125 g ai/ha, scale of 0 to 100
  pest or weed control at 125 g/ha: 95%
[14]; 16 g ai/ha, scale 0 to 100
  pest or weed control at 16 g/ha: 20%
[14]; 31 g ai/ha, scale 0 to 100
  pest or weed control at 31 g/ha: 10%
[14]; 62 g ai/ha, scale 0 to 100
  pest or weed control at 62 g/ha: 85%
[15]; 125 g ai/ha, scale of 0 to 100
  pest or weed control at 125 g/ha: 100%
[15]; 16 g ai/ha, scale 0 to 100
  pest or weed control at 16 g/ha: 0%
[15]; 31 g ai/ha, scale 0 to 100
  pest or weed control at 31 g/ha: 30%
[15]; 62 g ai/ha, scale 0 to 100
  pest or weed control at 62 g/ha: 85%
